Laboratory results taken from patent US4146719A, “Piperazinyl derivatives of quinoline carboxylic acids” (priority 1977, dated 1979).
In brackets after ≈: the same amount, converted by molar mass. Entries after “also recorded” stand apart in the source; their conditions may differ. Where two headings read alike, the source gives them in different places.

What was measured:
[1] = system: Diplococcus pneumoniae IID 552; assay: Antibacterial activity in vitro, M.I.C., agar dilution streak method; assay type: cell-based; conditions: Streptococcus pneumoniae, IID552; Gram +; read-out: M.I.C.
[2] = system: My. smegmatis IFO 3083; assay: as above; assay type: cell-based; conditions: Mycolicibacterium smegmatis, IFO3083; Gram +; read-out: M.I.C.
[3] = system: gram-positive and gram-negative bacteria including Pseudomonas aeruginosa; assay: Antibacterial spectrum in vitro (summary in words); assay type: cell-based
[4] = system: Corynebacterium pyogenes IID 548; assay: Antibacterial activity in vitro, M.I.C., agar dilution streak method; assay type: cell-based; conditions: Corynebacterium pyogenes, IID548; Gram +
[5] = system: Ps. aeruginosa IID 1130; assay: as above; assay type: cell-based, Pseudomonas aeruginosa; conditions: Pseudomonas aeruginosa, IID1130; Gram -; read-out: M.I.C.
[6] = system: Escherichia coli NIHJ; assay: as above; assay type: cell-based; conditions: Escherichia coli; Gram -; read-out: M.I.C.
[7] = system: Escherichia coli NIHJ JC-2; assay: Influence of liver homogenate on antibacterial activity; assay type: cell-based
Procedure: Nutrient agar was heated and melted. […] The diameter of the inhibition zone was measured.

[8] = system: Streptococcus pyogenes IID 692; assay: Antibacterial activity in vitro, M.I.C., agar dilution streak method; assay type: cell-based; conditions: Streptococcus pyogenes, IID692; Gram +; read-out: M.I.C.
[9] = system: Sta. aureus ATCC 14775; assay: as above; assay type: cell-based, Staphylococcus aureus; conditions: Staphylococcus aureus, ATCC14775; Gram +; read-out: M.I.C.
[10] = system: E. coli ATCC 10536; assay: as above; assay type: cell-based, Escherichia coli; conditions: Escherichia coli, ATCC10536; Gram -; read-out: M.I.C.
[11] = system: Str. faecalis IID 682; assay: as above; assay type: cell-based; conditions: Enterococcus faecalis, IID682; Gram +
[12] = system: Staphylococcus aureus 209P; assay: as above; assay type: cell-based; conditions: Staphylococcus aureus, 209P; Gram +; read-out: M.I.C.
[13] = Concentrations in tissues after a single oral administration of 50 mg/kg in rats; conditions: rat; for Tissue level, liver (free concentration): 50 mg/kg oral, mean ± S.E.
Procedure: Nutrient agar was heated and melted. Escherichia coli NIHJ JC-2 was added to melted agar, and well mixed, and 5 ml of the mixture was placed in Petri dish. Penicylinders were placed on the solidified agar, and the cylinder was filled with serum sample. The plate was placed in the incubator of 37° C. for 20 hours. The diameter of the inhibition zone was measured.
The tissue homogenates were prepared with 1:4 homogenates in M/15 phosphate buffer (pH 7.5).

[14] = rat, in vivo
[15] = system: chromosome of myelocytes; design: species or system rats; conditions: rat, in vivo, po, 1000 mg/kg
[16] = Concentrations in urine of mice after a single oral administration; assay type: in vivo; conditions: mouse; for concentration at 3 h: 0-3 hours; for concentration at 3 h / concentration at 6 h / concentration at 24 h / concentration at 27 h: mean ±S.E., read-out: Urinary level; for concentration at 6 h: 3-6 hours; for concentration at 24 h: 6-24 hours; for concentration at 27 h: 24-27 hours
[17] = system: Mycobacterium phlei IFO 3142; assay: Antibacterial activity in vitro, M.I.C., agar dilution streak method; assay type: cell-based; conditions: Mycolicibacterium phlei, IFO3142; Gram +; read-out: M.I.C.
[18] = system: Neisseria perflava IID 856; assay: as above; assay type: cell-based; conditions: Neisseria perflava, IID856; Gram -; read-out: M.I.C.
[19] = system: Ps. aeruginosa IFO 12689; assay: as above; assay type: cell-based, Pseudomonas aeruginosa; conditions: Pseudomonas aeruginosa, IFO12689; Gram -; read-out: M.I.C.
[20] = system: Klebsiella pneumoniae IFO 3512; assay: as above; assay type: cell-based; conditions: Klebsiella pneumoniae, IFO3512; Gram -; read-out: M.I.C.
[21] = system: Haemophilus influenzae IID 986; assay: as above; assay type: cell-based; conditions: Haemophilus influenzae, IID986; Gram -; read-out: M.I.C.
[22] = system: Ps. aeruginosa IID 1210; assay: as above; assay type: cell-based, Pseudomonas aeruginosa; conditions: Pseudomonas aeruginosa, IID1210; Gram -; read-out: M.I.C.

SMILES: CCn1cc(C(=O)O)c(=O)c2cc(F)c(N3CCNCC3)cc21 [Compound (II), 1-ethyl-6-fluoro-1,4-dihydro-7-(1-piperazinyl)-4-oxoquinoline-3-carboxylicacid]
- MIC [1]: 12.5 µg/mL (≈ 39.1 µM)
- MIC [2]: 1.56 µg/mL (≈ 4.89 µM)
- antibacterial activity (in words) [3]: more active than nalidixic acid and pipemidic acid against both of gram-positive and gram-negative bacteria; also recorded: more active than gentamicin and carbenicillin against gram-negative bacteria including Pseudomonas aeruginosa; also recorded: inhibited even such bacteria those were not susceptible to nalidixic acid, pipemidic acid and carbenicillin
- MIC [4]: 3.13 µg/mL
- MIC [5]: 0.78 µg/mL (≈ 2.44 µM)
- MIC [6]: 0.1 µg/mL (≈ 0.313 µM)
- antibacterial activity in presence of liver homogenate (in words) [7]: decreased by liver and kidney homogenate
- MIC [8]: 3.13 µg/mL (≈ 9.8 µM)
- MIC [9]: 1.56 µg/mL (≈ 4.89 µM)
- MIC [10]: 0.05 µg/mL (≈ 0.157 µM)
- MIC [11]: 3.13 µg/mL
- MIC [12]: 0.78 µg/mL (≈ 2.44 µM)
- Tissue level, liver (free concentration) ([13]; 0.5 hrs.): 4.1 ± 0.9 µg/g
- Tissue level, liver (free concentration) ([13]; 1 hr.): 3.7 ± 0.6 µg/g
- Tissue level, liver (free concentration) ([13]; 2 hrs.): 2.5 ± 0.5 µg/g
- Tissue level, liver (free concentration) ([13]; 4 hrs.): 1.2 ± 0.2 µg/g
- Tissue level, liver (free concentration) ([13]; 6 hrs.): 0.7 ± 0.1 µg/g
- concentration at 0.5 h ([13]; liver, po, 50 mg/kg): 9000 ± 1900 ng/g
- concentration at 1 h ([13]; liver, po, 50 mg/kg): 7900 ± 1200 ng/g
- concentration at 2 h ([13]; liver, po, 50 mg/kg): 5400 ± 1000 ng/g
- concentration at 4 h ([13]; liver, po, 50 mg/kg): 2600 ± 400 ng/g
- concentration at 6 h ([13]; liver, po, 50 mg/kg): 1500 ± 200 ng/g
- dose dependence of serum concentration (in words) [14]: depended on the dose from 25 mg/kg to 400 mg/kg
- effects on chromosome of myelocytes (in words) [15]: no effects of the test compound on chromosome of myelocytes were observed
- concentration at 3 h ([16]; 1.56 mg/kg oral): 530 ± 60 ng/mL
- concentration at 6 h ([16]; 1.56 mg/kg oral): 220 ± 40 ng/mL
- concentration at 24 h ([16]; 1.56 mg/kg oral): 40 ± 30 ng/mL
- concentration at 27 h ([16]; 1.56 mg/kg oral): 30 ± 20 ng/mL
- concentration at 3 h ([16]; 3.13 mg/kg oral): 1760 ± 190 ng/mL
- concentration at 6 h ([16]; 3.13 mg/kg oral): 1460 ± 230 ng/mL
- concentration at 24 h ([16]; 3.13 mg/kg oral): 270 ± 40 ng/mL
- concentration at 27 h ([16]; 3.13 mg/kg oral): 140 ± 10 ng/mL
- concentration at 3 h ([16]; 6.25 mg/kg oral): 3700 ± 260 ng/mL
- concentration at 6 h ([16]; 6.25 mg/kg oral): 2040 ± 130 ng/mL
- concentration at 24 h ([16]; 6.25 mg/kg oral): 3010 ± 170 ng/mL
- concentration at 27 h ([16]; 6.25 mg/kg oral): 380 ± 50 ng/mL
- concentration at 3 h ([16]; 12.5 mg/kg oral): 10300 ± 900 ng/mL
- concentration at 6 h ([16]; 12.5 mg/kg oral): 8300 ± 700 ng/mL
- concentration at 24 h ([16]; 12.5 mg/kg oral): 7400 ± 800 ng/mL
- concentration at 27 h ([16]; 12.5 mg/kg oral): 1200 ± 100 ng/mL
- concentration at 3 h ([16]; 25.0 mg/kg oral): 16200 ± 3300 ng/mL
- concentration at 6 h ([16]; 25.0 mg/kg oral): 20300 ± 1700 ng/mL
- concentration at 24 h ([16]; 25.0 mg/kg oral): 11700 ± 900 ng/mL
- concentration at 27 h ([16]; 25.0 mg/kg oral): 2500 ± 200 ng/mL
- concentration at 3 h ([16]; 50.0 mg/kg oral): 33100 ± 2800 ng/mL
- concentration at 6 h ([16]; 50.0 mg/kg oral): 27200 ± 3200 ng/mL
- concentration at 24 h ([16]; 50.0 mg/kg oral): 23100 ± 2000 ng/mL
- concentration at 27 h ([16]; 50.0 mg/kg oral): 7700 ± 1100 ng/mL
- Tmax ([16]; oral, read-out: time of concentrations peak in urine): 0 to 6 h
- MIC [17]: 0.39 µg/mL (≈ 1.22 µM)
- MIC [18]: 0.05 µg/mL (≈ 0.157 µM)
- MIC [19]: 1.56 µg/mL (≈ 4.89 µM)
- MIC [20]: 0.05 µg/mL (≈ 0.157 µM)
- MIC [21]: 0.05 µg/mL (≈ 0.157 µM)
- MIC [22]: 1.56 µg/mL (≈ 4.89 µM)
